Legend:
[1] = tested on: monocrotaline (MCT) induced pulmonary arterial hypertension in rats; assay: Pulmonary artery pressure in monocrotaline treated rats; type: in vivo, rat (male Sprague Dawley)
Procedure: Pulmonary Artery Pressure in Monocrotaline Treated Rats
Male Sprague Dawley rats (250-300 g) are treated with monocrotaline 60 mg/kg subcutanously (=day 0). On day 14 after monocrotaline injection treatment the compound/combination to be tested is administered. On day 28 hemodynamic parameters, i.e. right ventricular pressure, systemic blood pressure, heart rate, arterial and venous oxygen saturation are measured and compared with untreated control animals.
The mentioned monocrotaline (MCT) treated rats are randomized to receive example 14 [4-(4-chlorophenylamino)-7-(2-methylaminocarbonyl-4-pyridylmethoxy)furo-[2,3-d]pyridazine] 10 mg/kg or vehicle by gavage once daily after the onset of moderate pulmonary arterial hypertension starting 14 days after the injection of MCT until the final hemodynamic measurement on day 28. In animals with MCT induced pulmonary arterial hypertension treatment with example 14 markedly decreases right ventricular systolic pressure, compared to vehicle treated animals (control: 25±0.56 mmHg; example 14: 42.04±3.21 mmHg vs. placebo: 71.02±5.38 mmHg) (mean±SEM). This effect of example 14 is paralleled by an inhibition of right ventricular hypertrophy (right ventricle/left ventricle+septum ratio control: 0.26±0.01; example 14: 0.32±0.02 vs. placebo: 0.54±0.04).

Row | Structure (SMILES) | melting point | right ventricle/left ventricle+septum ratio (right ventricular hypertrophy) ([1]; 10 mg/kg by gavage once daily from day 14 to day 28, day 28, control 0.26±0.01, placebo 0.54±0.04) | right ventricular systolic pressure ([1]; 10 mg/kg by gavage once daily from day 14 to day 28, measured day 28, mean±SEM, control 25±0.56, placebo 71.02±5.38) [mmHg]
1 | NC(=O)c1cc(COc2nnc(Nc3ccc(Cl)cc3)c3ccsc23)ccn1 | 233 °C | – | –
2 | Clc1ccc(Nc2nnc(OCc3ccncc3)c3sccc23)cc1 | 203 to 205 °C (dec.) | – | –
3 | CNC(=O)c1cc(COc2nnc(Nc3ccc(Cl)cc3)c3ccoc23)ccn1 [Example 14, 4-(4-chlorophenylamino)-7-(2-methylaminocarbonyl-4-pyridylmethoxy)furo-[2,3-d]pyridazine] | – | 0.32±0.02 | 42.04±3.21

From patent US8304406B2, “Compounds for treating pulmonary hypertension” (Bayer Intellectual Property GmbH, priority 2006, dated 2012)
